Results: the Kinase Knowledgebase extract (Sharma et al. 2016)
pIC50: −log10 of the molar value.

What follows are compounds tested against MAPK14 (human) (UniProt Q16539) (assay: Inhibition of MAPK14 Kinase Activity).
MAPK14 (human), sequence (Q16539 whole entry, looked up): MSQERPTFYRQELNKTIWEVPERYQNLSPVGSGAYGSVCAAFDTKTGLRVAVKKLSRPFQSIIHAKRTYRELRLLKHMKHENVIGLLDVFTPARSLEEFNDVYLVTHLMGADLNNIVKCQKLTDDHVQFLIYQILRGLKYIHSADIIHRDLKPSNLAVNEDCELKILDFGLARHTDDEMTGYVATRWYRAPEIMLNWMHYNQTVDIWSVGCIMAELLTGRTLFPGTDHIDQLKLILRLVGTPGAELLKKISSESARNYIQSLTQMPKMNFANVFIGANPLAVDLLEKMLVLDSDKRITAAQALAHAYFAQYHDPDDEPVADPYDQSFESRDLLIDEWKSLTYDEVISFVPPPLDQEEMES

Compound | pIC50
CCN(CC)CCNc1nc(-c2ccc(F)cc2C)c2ccc(=O)n(-c3c(F)cccc3F)c2n1 | > 5.00
Cc1cc(F)ccc1-c1nc(N[C@H]2CCCC[C@@H]2O)nc2c1ccc(=O)n2-c1c(F)cccc1F | > 5.00
Cc1nnc(CNc2nc(-c3ccc(F)cc3C)c3ccc(=O)n(-c4c(F)cccc4F)c3n2)[nH]1 | > 5.00
CCNc1nc(-c2ccc(F)cc2C)c2ccc(=O)n(-c3ccccc3F)c2n1 | > 5.00
COCCNc1nc(-c2ccc(F)cc2C)c2ccc(=O)n(-c3c(F)cccc3F)c2n1 | > 5.00
CSc1nc(-c2ccccc2)c2ccc(=O)n(-c3ccccc3)c2n1 | > 5.00
Cc1cc(F)ccc1-c1nc(NC(=O)C2CC2)nc2c1ccc(=O)n2-c1c(F)cccc1F | > 5.00
CCOc1nc(-c2ccc(F)cc2C)c2ccc(=O)n(-c3c(F)cccc3F)c2n1 | > 5.00
Cc1cc(F)ccc1-c1nc(NC2CCN(C)CC2)nc2c1ccc(=O)n2-c1c(F)cccc1F | > 5.00
Cc1cc(F)ccc1-c1nc(NCCC(=N)NO)nc2c1ccc(=O)n2-c1c(F)cccc1F | > 5.00
Cc1cc(F)ccc1-c1nc(NCCNC(=O)OC(C)(C)C)nc2c1ccc(=O)n2-c1c(F)cccc1F | > 5.00
NCCNc1nc(-c2ccccc2Cl)c2ccc(=O)n(-c3ccccc3Cl)c2n1 | > 5.00
CCC(CC)n1c(=O)ccc2c(-c3ccccc3Cl)nc(NC3CCN(C)CC3)nc21 | > 5.00
O=c1ccc2c(-c3ccccc3Cl)nc(NC(CO)CO)nc2n1-c1ccccc1Cl | > 5.00
Cc1cc(F)ccc1-c1nc(OCCNC(=O)OC(C)(C)C)nc2c1ccc(=O)n2-c1c(F)cccc1F | > 5.00
Cc1cc(F)ccc1-c1nc(OCCNS(C)(=O)=O)nc2c1ccc(=O)n2-c1c(F)cccc1F | > 5.00
Cc1cc(F)ccc1-c1nc(NC2CCCCC2)nc2c1ccc(=O)n2-c1ccccc1C | > 5.00
Cc1cc(F)ccc1-c1nc(NCC(=O)N2CCOCC2)nc2c1ccc(=O)n2-c1c(F)cccc1F | > 5.00
CC(=O)NCCOc1nc(-c2ccc(F)cc2C)c2ccc(=O)n(-c3c(F)cccc3F)c2n1 | > 5.00

Compound | pIC50
CCCCOc1nc(-c2ccc(F)cc2C)c2ccc(=O)n(-c3c(F)cccc3F)c2n1 | > 5.00
Cc1cc(F)ccc1-c1nc(NCC(N)=O)nc2c1ccc(=O)n2-c1c(F)cccc1F | > 5.00
O=C(O)CNc1nc(-c2ccccc2Cl)c2ccc(=O)n(-c3ccccc3Cl)c2n1 | > 5.00
Cc1cc(F)ccc1-c1nc(N(C(=O)C2CC2)C(=O)C2CC2)nc2c1ccc(=O)n2-c1c(F)cccc1F | > 5.00
Cc1cc(F)ccc1-c1nc(N(C)CCO)nc2c1ccc(=O)n2-c1c(F)cccc1F | > 5.00
CCC(C)n1c(=O)ccc2c(-c3ccc(F)cc3C)nc(NC(CO)CO)nc21 (stereo not given) | > 5.00
Cc1cc(F)ccc1-c1nc(NCC(C)(C)O)nc2c1ccc(=O)n2-c1c(F)cccc1F | > 5.00
COc1nc(-c2ccccc2Cl)c2ccc(=O)n(-c3ccccc3Cl)c2n1 | > 5.00
CN1CCC(Nc2nc(-c3ccccc3Cl)c3ccc(=O)n(-c4ccccc4Cl)c3n2)CC1 | > 5.00
Cc1cc(F)ccc1-c1nc(NC(CO)(CO)CO)nc2c1ccc(=O)n2-c1c(F)cccc1F | > 5.00
Cc1cc(F)ccc1-c1nc(N(C)S(C)(=O)=O)nc2c1ccc(=O)n2-c1c(F)cccc1F | > 5.00
Cc1cc(F)ccc1-c1nc(NCCN)nc2c1ccc(=O)n2-c1c(F)cccc1F | > 5.00
Cc1cc(F)ccc1-c1nc(NC[C@@H](C)O)nc2c1ccc(=O)n2-c1c(F)cccc1F | > 5.00
Cc1cc(CNc2nc(-c3ccc(F)cc3C)c3ccc(=O)n(-c4c(F)cccc4F)c3n2)on1 | > 5.00
CCC(CC)n1c(=O)ccc2c(-c3ccccc3Cl)nc(N[C@H](C)CO)nc21 | > 5.00
Cc1cc(F)ccc1-c1nc(NCC(C)(C)C)nc2c1ccc(=O)n2-c1ccccc1F | > 5.00
CCC(CC)n1c(=O)ccc2c(-c3ccccc3Cl)nc(NCCN(CC)CC)nc21 | > 5.00
CSc1nc(Cl)c(C=O)c(NC2CCCCC2)n1 | > 5.00
CCC(C)n1c(=O)ccc2c(-c3ccccc3F)nc(SC)nc21 (stereo not given) | > 5.00

Second part, the compound after the results:

pIC50 | Compound
> 5.00 | CCn1c(=O)ccc2c(-c3ccccc3F)nc(SC)nc21
> 5.00 | Cc1cc(F)ccc1-c1nc(NC[C@@H](C)O)nc2c1ccc(=O)n2-c1ccccc1F
> 5.00 | CC(CO)(CO)Nc1nc(-c2ccccc2Cl)c2ccc(=O)n(-c3ccccc3Cl)c2n1
> 5.00 | CSc1nc(-c2ccc(F)cc2C)c2ccc(=O)n(C3CCCCC3)c2n1
> 5.00 | COc1nc(-c2ccccc2F)c2ccc(=O)n(-c3c(F)cccc3F)c2n1
> 5.00 | CSCCCNc1nc(-c2ccc(F)cc2C)c2ccc(=O)n(-c3c(F)cccc3F)c2n1
> 5.00 | CCC(CC)n1c(=O)ccc2c(-c3ccccc3Cl)nc(NCCN)nc21
> 5.00 | CCC(CC)n1c(=O)ccc2c(-c3ccccc3Cl)nc(NC(CO)CO)nc21
> 5.00 | Cc1cc(F)ccc1-c1nc(NC(CO)CO)nc2c1ccc(=O)n2C(C)C
> 5.00 | Cc1cc(F)ccc1-c1nc(O)nc2c1ccc(=O)n2-c1c(F)cccc1F
> 5.00 | Cc1cc(F)ccc1-c1nc(NC[C@H](C)O)nc2c1ccc(=O)n2-c1c(F)cccc1F
> 5.00 | CSc1nc(-c2ccc(F)cc2C)c2ccc(=O)n(-c3c(F)cccc3F)c2n1
> 5.00 | CS(=O)(=O)Nc1nc(-c2ccccc2F)c2ccc(=O)n(-c3c(F)cccc3F)c2n1
> 5.00 | Cc1cc(F)ccc1-c1nc(NCC2CCCO2)nc2c1ccc(=O)n2-c1c(F)cccc1F (stereo not given)
> 5.00 | Cc1cc(F)ccc1-c1nc(S(C)(=O)=O)nc2c1ccc(=O)n2-c1c(C)cccc1C
> 5.00 | CCOC(=O)CNc1nc(-c2ccccc2Cl)c2ccc(=O)n(-c3ccccc3Cl)c2n1
> 5.00 | Cc1cc(F)ccc1-c1nc(NC[C@@H](C)O)nc2c1ccc(=O)n2C1CCCCC1
> 5.00 | CCNc1nc(-c2ccc(F)cc2C)c2ccc(=O)n(-c3ccccc3C)c2n1
> 5.00 | Cc1cc(F)ccc1-c1nc(NCCNC(=O)c2ccccc2)nc2c1ccc(=O)n2-c1c(F)cccc1F
> 5.00 | CNC(=O)NCCNc1nc(-c2ccc(F)cc2C)c2ccc(=O)n(-c3c(F)cccc3F)c2n1
> 5.00 | Cc1cc(F)ccc1-c1nc(NC(CO)CO)nc2c1ccc(=O)n2C1CC1
> 5.00 | Cc1cc(F)ccc1-c1nc(NCCCN2CCCC2=O)nc2c1ccc(=O)n2-c1c(F)cccc1F
> 5.00 | Cc1cc(F)ccc1-c1nc(NCC(=O)N(C)C)nc2c1ccc(=O)n2-c1c(F)cccc1F
> 5.00 | Cc1cc(F)ccc1-c1nc(NC2CCOCC2)nc2c1ccc(=O)n2-c1ccccc1C
> 5.00 | Cc1cc(F)ccc1-c1nc(N[C@H]2CC[C@H](O)CC2)nc2c1ccc(=O)n2-c1c(F)cccc1F
> 5.00 | Cc1cc(F)ccc1-c1nc(NCC(F)(F)F)nc2c1ccc(=O)n2-c1c(F)cccc1F

pIC50 | Compound
> 5.00 | CCN(CC)CCNc1nc(-c2ccccc2F)c2ccc(=O)n(-c3ccccc3Cl)c2n1
> 5.00 | Cc1cc(F)ccc1-c1nc(NCc2nnn[nH]2)nc2c1ccc(=O)n2-c1c(F)cccc1F
> 5.00 | Cc1cc(F)ccc1-c1nc(N2CCOCC2)nc2c1ccc(=O)n2-c1ccccc1C
> 5.00 | Cc1cc(F)ccc1-c1nc(NC(C)(CO)CO)nc2c1ccc(=O)n2-c1c(F)cccc1F
> 5.00 | COc1nc(-c2ccccc2F)c2ccc(=O)n(-c3ccccc3Cl)c2n1
> 5.00 | Cc1cc(F)ccc1-c1nc(NCC(C)(C)O)nc2c1ccc(=O)n2-c1ccccc1C
> 5.00 | Cc1cc(F)ccc1-c1nc(NCCNC(=O)Nc2ccccc2)nc2c1ccc(=O)n2-c1c(F)cccc1F
> 5.00 | Cc1cc(F)ccc1-c1nc(NC(C)(C)CO)nc2c1ccc(=O)n2-c1ccccc1F
> 5.00 | Cc1cc(F)ccc1-c1nc(NCCc2noc(=O)[nH]2)nc2c1ccc(=O)n2-c1c(F)cccc1F
> 5.00 | Cc1cc(F)ccc1-c1nc(N[C@@H](C)CO)nc2c1ccc(=O)n2-c1c(F)cccc1F
> 5.00 | Cc1cc(F)ccc1-c1nc(OCCCS(C)(=O)=O)nc2c1ccc(=O)n2-c1c(F)cccc1F
> 5.00 | Cc1cc(F)ccc1-c1nc(NC(CO)CO)nc2c1ccc(=O)n2-c1ccccc1F
> 5.00 | Cc1cc(F)ccc1-c1nc(NC(CO)CO)nc2c1ccc(=O)n2-c1ccccc1C
> 5.00 | Cc1cc(F)ccc1-c1nc(NCC(=O)N2CCNC(=O)C2)nc2c1ccc(=O)n2-c1c(F)cccc1F
> 5.00 | O=c1ccc2c(-c3ccccc3F)nc(NC(CO)CO)nc2n1-c1c(F)cccc1F
> 5.00 | CS(=O)(=O)Nc1nc(-c2ccccc2)c2ccc(=O)n(-c3ccccc3)c2n1
> 5.00 | Cc1cc(F)ccc1-c1nc(NCCNC(=O)CNC(=O)OC(C)(C)C)nc2c1ccc(=O)n2-c1c(F)cccc1F
> 5.00 | Cc1cc(F)ccc1-c1nc(NC2CCCCC2)nc2c1ccc(=O)n2-c1c(F)cccc1F
> 5.00 | Cc1cc(F)ccc1-c1nc(NC(C)(CO)CO)nc2c1ccc(=O)n2-c1ccccc1F
> 5.00 | Cc1cc(F)ccc1-c1nc(NC[C@@H](C)O)nc2c1ccc(=O)n2-c1ccccc1C
> 5.00 | CCNC(=O)NCCNc1nc(-c2ccc(F)cc2C)c2ccc(=O)n(-c3c(F)cccc3F)c2n1
> 5.00 | Cc1cc(F)ccc1-c1nc(NC[C@H](O)c2ccccc2)nc2c1ccc(=O)n2-c1c(F)cccc1F
> 5.00 | Cc1cc(F)ccc1-c1nc(NCC(F)(F)F)nc2c1ccc(=O)n2-c1ccccc1F
> 5.00 | Cc1cc(F)ccc1-c1nc(NC(C)(CO)CO)nc2c1ccc(=O)n2-c1ccccc1C
> 5.00 | CSCCCOc1nc(-c2ccc(F)cc2C)c2ccc(=O)n(-c3c(F)cccc3F)c2n1
> 5.00 | CCONc1nc(-c2ccc(F)cc2C)c2ccc(=O)n(-c3ccccc3F)c2n1
